# From ChEMBL document CHEMBL1201862, “PubChem BioAssay data set” (2004)
#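 Results reflect a 48-hour exposure of cells in 96-well plates to compound at five concentrations. Abbreviation: GI50, concentration required for 50% inhibition of growth.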 Active and inactive are the calls of the source. No stated cut-off is given here; in the data, active = GI50 up to about 1.1 µM and inactive = higher.
# Experiments:
# Assay in all cases: NCI-60 cell line screen, 48 h
# ACHN = tested on: ACHN
# SK-MEL-5 = tested on: SK-MEL-5
# SN12C = tested on: SN12C
# SK-MEL-2 = tested on: SK-MEL-2
# OVCAR-3 = tested on: OVCAR-3
# M14 = tested on: M14
# HCT-15 = tested on: HCT-15
# MCF7 = tested on: MCF7
# NCI-H522 = tested on: NCI-H522
# COLO 205 = tested on: COLO 205
# EKVX = tested on: EKVX
# PC-3 = tested on: PC-3
# SF-295 = tested on: SF-295
# SW-620 = tested on: SW-620
# DMS-114 = tested on: DMS-114
# SNB-75 = tested on: SNB-75
# HOP-62 = tested on: HOP-62
# SK-OV-3 = tested on: SK-OV-3
# MOLT-4 = tested on: MOLT-4
# MDA-MB-231 = tested on: MDA-MB-231
SMILES,GI50 (ACHN),GI50 (SK-MEL-5),GI50 (SN12C),GI50 (SK-MEL-2),GI50 (OVCAR-3),GI50 (M14),GI50 (HCT-15),GI50 (MCF7),GI50 (NCI-H522),GI50 (COLO 205),GI50 (EKVX),GI50 (PC-3),GI50 (SF-295),GI50 (SW-620),GI50 (DMS-114),GI50 (SNB-75),GI50 (HOP-62),GI50 (SK-OV-3),GI50 (MOLT-4),GI50 (MDA-MB-231)
O=C(O)CCC(O)=C1S(=O)(=O)OCCOS1(=O)=O,> 100 µM (inactive),> 100 µM (inactive),> 100 µM (inactive),> 100 µM (inactive),> 100 µM (inactive),> 100 µM (inactive),> 100 µM,> 100 µM (inactive),> 100 µM (inactive),> 100 µM (inactive),> 100 µM (inactive),> 100 µM (inactive),> 100 µM (inactive),> 100 µM (inactive),> 100 µM (inactive),> 100 µM (inactive),> 100 µM (inactive),> 100 µM (inactive),> 100 µM (inactive),> 100 µM (inactive)
COc1cc2[nH]c3c(c2cc1OC)CCN[C@@]31CC[C@@]2(CC3c4c(cc(OC)c(O)c42)CCN3C)C[C@@H]1OC (stereo not given in full),46 µM (inactive),16.5 µM (inactive),71.9 µM (inactive),17.8 µM (inactive),53.2 µM (inactive),18 µM (inactive),30.3 µM,> 68.2 µM (inactive),29.2 µM (inactive),16.6 µM (inactive),36.4 µM (inactive),48.6 µM (inactive),21.2 µM (inactive),32.8 µM (inactive),20.2 µM (inactive),18.3 µM (inactive),62.8 µM (inactive),73.6 µM (inactive),23.4 µM (inactive),28.1 µM (inactive)
